Measured values from patent publication US11738008B2, “N-methyl-D-aspartic acid receptor modulators” (Emory University, priority 2018, dated 2023).
pEC50: −log10 of the molar value. In brackets after ≈: the same amount, converted by molar mass. Read-outs that look alike come from different tables or passages of the source.

How the values were obtained:
[1] = nephelometer, oocyte recording solution
α1B = α1B (Homo sapiens, UniProt P35368); experiment: NIMH PDSP radioligand binding, α1B; conditions: read-out: Radioligand binding in 10 μM compound (% control)
Procedure: (§1) The NIMH PDSP is Directed by Bryan L. Roth at the University of North Carolina at Chapel Hill and Project Officer Jamie Driscoll at NIMH, Bethesda Md., USA. Radioligand binding was measured in the presence of 10 μM 1180-420 and 1180-447. […] For experimental details please refer to the PDSP web site https://pdsp.unc.edu/ims/investigator/web/. Both 1180-420 and 1180-447 were also tested at AMPA, nicotinic acetylcholine, serotonin, GABA, and glycine ion channels using a two-electrode voltage clamp assay.
(§2) Receptor binding profiles of compound 1180-447 were generously provided by the National Institute of Mental Health's Psychoactive Drug Screening Program, Contract # HHSN-271-2013-00017-C(NIMH PDSP). The NIMH PDSP is directed by Bryan L. Roth at the University of North Carolina at Chapel Hill and Project Officer Jamie Driscoll at NIMH, Bethesda Md., USA. Radioligand binding was measured in the presence of 10 μM 1180-447. […] For experimental details please refer to the PDSP web site https://pdsp.unc.edu/ims/investigator/web/.
(§3) The NIMH PDSP is Directed by Bryan L. Roth at the University of North Carolina at Chapel Hill and Project Officer Jamie Driscoll at NIMH, Bethesda Md., USA. Radioligand binding was measured in the presence of 10 μM 1180-420. […] For experimental details please refer to the PDSP web site https://pdsp.unc.edu/ims/investigator/web/.

rat GluN1/GluN2C [2] = molecular target: rat GluN1/GluN2C (Rattus norvegicus, UniProt Q00961); experiment: Two-electrode voltage clamp recordings in Xenopus laevis oocytes, potentiation of GluN1/GluN2C; type: cell-based
Procedure: (§4) Xenopus laevis oocytes were purchased unfertilized from Ecocyte (Austin, Tex.). The oocytes were injected with mRNA to express recombinant rat GluN1/GluN2A, GluN1/GluN2B, GluN1/GluN2C, and GluN1/GluN2D and two-electrode voltage clamp (TEVC) recordings were performed. Drs. S. Heinemann (Salk Institute), S. Nakanishi (Kyoto University), and P. Seeburg (University of Heidelberg) provided the cDNAs for rat GluN1-1a (GenBank accession numbers U11418 and U08261, referred to as GluN1 henceforth), GluN2A (D13211), GluN2B (U11419), GluN2C (M91563), and GluN2D (D13213). GluN2C and GluN2D were altered according to literature precedent. […] To prevent the current increase typically seen during experiments with oocytes expressing GluN1/GluN2A receptors, the oocytes were either injected with 20 nL of 100 mM K-BAPTA (potassium 1,2-bis(o-aminophenoxy)ethane-N,N,N,N-tetraacetic acid) or pretreated with 50 μM BAPTA-AM (1,2-bis(o-aminophenoxy)ethane-N,N,N,N-tetraacetic acid tetraacetoxymethyl ester) for 10 minutes.

rat GluN1/GluN2C [3] = molecular target: rat GluN1/GluN2C (Rattus norvegicus, UniProt P35439+Q00961); experiment: as above; type: cell-based
Procedure: as §4

M3 = M3 (Homo sapiens, UniProt P20309); experiment: NIMH PDSP radioligand binding, M3; conditions: read-out: Radioligand binding in 10 μM compound (% control)
Procedure: as §1, §2, §3

5-HT3A = molecular target: T1, 5-HT3A (Homo sapiens, UniProt P46098); experiment: Off-target two-electrode voltage clamp assay, 5-HT3A; type: cell-based; conditions: 10 μM, mean ± SEM
T1 construct: expressed in transfected cells
Procedure: as §1

[4] = In vivo pharmacokinetics, plasma and brain, IP 10 mg/kg; set-up: species or system C57BL/6 mice; conditions: mouse; for AUC % Extrapolation / AUCINF / AUCLAST / t½terminal / Tmax / Cmax / AUC(0-inf) / AUC(0-t): mean; for max brain concentration / half-life: IP 10 mg/kg; for Kp / half-life / Tmax / Cmax / AUC(0-inf) / AUC(0-t): male; for Kp: C57BL/6, brain and plasma, IP 10 mg/kg fed, read-out: Ratio_AUCLAST (Brain/plasma); for half-life: C57BL/6, plasma, read-out: half-lives in plasma; for Tmax / Cmax / AUC(0-inf) / AUC(0-t): C57BL/6
Procedure: In vivo analysis of 1180-420 and 1180-447 for pharmacokinetic properties: In vivo analysis of 1180-420 and 1180-447 for pharmacokinetic properties was performed by Pharmaron (Irvine, Calif.). […] The mouse is placed head down at a 45-degree angle to facilitate blood removal. After perfusion, the brain ventricle is opened, and the brain is removed. […] The mixtures were then vortexed for 30 seconds and subsequently centrifuged (˜4000 rpm) for 15 minutes.

α1-Glycine = molecular target: T2, α1-Glycine (Homo sapiens, UniProt P23415); experiment: Off-target two-electrode voltage clamp assay, α1-Glycine; type: cell-based; conditions: 10 μM, mean ± SEM
T2 construct: expressed in transfected cells
Procedure: as §1

[5] = Brain IP 10 mg/kg fed, read-out: Cmax
[6] = Brain IP 10 mg/kg fed, read-out: Cmax (ng/g)
[7] = Plasma IP 10 mg/kg fed, read-out: Cmax
[8] = Plasma IP 10 mg/kg fed, read-out: Cmax (ng/mL)

M3, sequence (P20309 whole entry): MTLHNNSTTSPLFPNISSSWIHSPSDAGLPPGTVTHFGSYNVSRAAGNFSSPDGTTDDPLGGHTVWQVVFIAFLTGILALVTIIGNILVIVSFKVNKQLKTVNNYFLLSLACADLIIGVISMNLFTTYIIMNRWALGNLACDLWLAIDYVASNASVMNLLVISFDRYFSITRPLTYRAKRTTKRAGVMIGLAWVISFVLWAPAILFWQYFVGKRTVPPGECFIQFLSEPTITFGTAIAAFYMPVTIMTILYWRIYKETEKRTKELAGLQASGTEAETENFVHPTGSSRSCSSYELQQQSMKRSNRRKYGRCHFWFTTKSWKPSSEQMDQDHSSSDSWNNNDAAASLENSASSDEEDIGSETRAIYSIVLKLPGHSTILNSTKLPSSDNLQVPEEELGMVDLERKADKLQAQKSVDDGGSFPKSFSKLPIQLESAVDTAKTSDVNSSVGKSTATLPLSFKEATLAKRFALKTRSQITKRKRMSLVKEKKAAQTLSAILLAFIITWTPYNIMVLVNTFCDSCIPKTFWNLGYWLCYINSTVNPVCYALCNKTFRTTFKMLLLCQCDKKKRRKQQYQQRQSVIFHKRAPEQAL
α1B, sequence (P35368 whole entry): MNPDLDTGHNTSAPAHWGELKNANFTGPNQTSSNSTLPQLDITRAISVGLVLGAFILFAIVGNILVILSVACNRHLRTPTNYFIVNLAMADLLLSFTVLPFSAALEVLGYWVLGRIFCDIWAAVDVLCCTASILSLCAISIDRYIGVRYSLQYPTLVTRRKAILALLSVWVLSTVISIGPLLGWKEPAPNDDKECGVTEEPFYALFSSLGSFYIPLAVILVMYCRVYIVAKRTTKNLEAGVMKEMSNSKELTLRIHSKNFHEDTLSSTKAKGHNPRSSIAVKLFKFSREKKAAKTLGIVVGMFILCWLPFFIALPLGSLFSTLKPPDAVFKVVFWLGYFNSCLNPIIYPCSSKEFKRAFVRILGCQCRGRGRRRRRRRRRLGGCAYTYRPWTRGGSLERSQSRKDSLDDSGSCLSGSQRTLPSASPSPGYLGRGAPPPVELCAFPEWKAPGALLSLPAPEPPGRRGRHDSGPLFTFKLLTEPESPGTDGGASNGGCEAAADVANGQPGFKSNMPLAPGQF
rat GluN1/GluN2C (Rattus norvegicus, UniProt P35439+Q00961), sequence (Q00961 20-1237, other chains not shown): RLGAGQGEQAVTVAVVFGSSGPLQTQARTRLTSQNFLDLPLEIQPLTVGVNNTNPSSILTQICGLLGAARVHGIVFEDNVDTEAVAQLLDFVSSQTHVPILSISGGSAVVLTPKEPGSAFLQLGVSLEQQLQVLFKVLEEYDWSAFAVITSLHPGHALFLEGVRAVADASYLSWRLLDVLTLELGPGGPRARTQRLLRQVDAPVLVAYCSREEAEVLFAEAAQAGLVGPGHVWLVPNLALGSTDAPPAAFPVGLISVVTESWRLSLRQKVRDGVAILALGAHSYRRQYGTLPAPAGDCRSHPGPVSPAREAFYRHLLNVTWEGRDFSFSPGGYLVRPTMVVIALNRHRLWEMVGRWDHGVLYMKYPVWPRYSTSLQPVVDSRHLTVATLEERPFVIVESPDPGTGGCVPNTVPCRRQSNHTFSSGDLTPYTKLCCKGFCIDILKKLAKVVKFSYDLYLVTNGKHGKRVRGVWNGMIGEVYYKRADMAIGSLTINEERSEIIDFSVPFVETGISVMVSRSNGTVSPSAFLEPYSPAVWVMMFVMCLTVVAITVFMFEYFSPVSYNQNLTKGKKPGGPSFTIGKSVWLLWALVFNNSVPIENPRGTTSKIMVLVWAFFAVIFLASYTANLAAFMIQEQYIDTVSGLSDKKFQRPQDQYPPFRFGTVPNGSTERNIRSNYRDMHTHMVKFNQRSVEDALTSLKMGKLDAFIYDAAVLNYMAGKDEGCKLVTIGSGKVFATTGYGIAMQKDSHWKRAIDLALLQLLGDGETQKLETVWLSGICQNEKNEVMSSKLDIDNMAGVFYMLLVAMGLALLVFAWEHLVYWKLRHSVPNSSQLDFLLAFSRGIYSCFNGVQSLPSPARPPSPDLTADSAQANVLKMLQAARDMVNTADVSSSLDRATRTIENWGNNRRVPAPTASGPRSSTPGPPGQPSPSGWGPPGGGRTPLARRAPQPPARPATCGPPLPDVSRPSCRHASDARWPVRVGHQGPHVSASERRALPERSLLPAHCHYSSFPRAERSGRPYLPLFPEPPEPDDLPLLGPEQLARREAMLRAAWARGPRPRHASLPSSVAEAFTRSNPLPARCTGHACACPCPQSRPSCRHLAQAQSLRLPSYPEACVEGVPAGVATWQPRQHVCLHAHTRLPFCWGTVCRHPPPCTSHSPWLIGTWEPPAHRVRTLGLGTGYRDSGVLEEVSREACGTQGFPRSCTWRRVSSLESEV
rat GluN1/GluN2C (Rattus norvegicus, UniProt Q00961), sequence (Q00961 20-1237, other chains not shown): as above
T1 sequence (P46098 24-478, species assumed): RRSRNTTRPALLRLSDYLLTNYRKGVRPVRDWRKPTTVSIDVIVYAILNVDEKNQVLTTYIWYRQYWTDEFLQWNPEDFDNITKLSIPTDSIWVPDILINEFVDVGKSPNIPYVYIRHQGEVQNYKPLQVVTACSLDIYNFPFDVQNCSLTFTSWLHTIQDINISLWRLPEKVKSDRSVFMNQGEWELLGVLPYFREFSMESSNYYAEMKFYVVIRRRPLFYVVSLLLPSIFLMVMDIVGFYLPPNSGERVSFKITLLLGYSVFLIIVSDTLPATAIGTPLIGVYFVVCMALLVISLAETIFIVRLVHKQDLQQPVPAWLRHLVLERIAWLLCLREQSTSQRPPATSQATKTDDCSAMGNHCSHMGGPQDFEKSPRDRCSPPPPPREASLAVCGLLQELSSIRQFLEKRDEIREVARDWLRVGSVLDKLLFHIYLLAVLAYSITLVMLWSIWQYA
T2 sequence (P23415 29-457): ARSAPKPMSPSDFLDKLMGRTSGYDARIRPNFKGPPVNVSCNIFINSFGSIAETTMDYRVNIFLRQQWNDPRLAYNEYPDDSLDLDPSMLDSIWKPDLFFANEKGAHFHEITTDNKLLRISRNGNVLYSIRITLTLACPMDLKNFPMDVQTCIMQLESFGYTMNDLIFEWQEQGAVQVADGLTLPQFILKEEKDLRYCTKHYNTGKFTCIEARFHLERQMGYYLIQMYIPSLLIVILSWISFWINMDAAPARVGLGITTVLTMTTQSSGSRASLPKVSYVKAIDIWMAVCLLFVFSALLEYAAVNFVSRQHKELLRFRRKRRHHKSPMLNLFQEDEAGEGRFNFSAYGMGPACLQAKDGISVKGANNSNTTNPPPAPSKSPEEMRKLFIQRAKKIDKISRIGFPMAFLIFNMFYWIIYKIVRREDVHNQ

SMILES	remaining activity at 10 µM (α1B) [%]	remaining activity at 10 µM (M3) [%]	AUC % Extrapolation ([4]; Brain IP 10 mg/kg fed) [%]	AUCINF ([4]; Brain IP 10 mg/kg fed) [ng·h/g]	AUCLAST ([4]; Brain IP 10 mg/kg fed) [ng·h/g]	t½terminal ([4]; Brain IP 10 mg/kg fed) [min]	max brain concentration [4] [µM]	AUC % Extrapolation ([4]; Plasma IP 10 mg/kg fed) [%]	t½terminal ([4]; Plasma IP 10 mg/kg fed) [min]	Kp [4]	half-life [4] [min]	Tmax ([4]; Brain IP 10 mg/kg fed) [min]	Cmax [4, 5] [nM]	Cmax [4, 6] [ng/g]	AUC(0-inf) ([4]; Plasma IP 10 mg/kg fed) [ng·h/mL]	AUC(0-t) ([4]; Plasma IP 10 mg/kg fed) [ng·h/mL]	Tmax ([4]; Plasma IP 10 mg/kg fed) [min]	Cmax [4, 7] [nM]	Cmax [4, 8] [ng/mL]	further results
COc1ccc(OCC2c3cccn3CC(=O)N2Cc2cccc(C(F)(F)F)c2)cc1 (racemic) [1180-447, 1-((4-Methoxyphenoxy)methyl)-2-(3-(trifluoromethyl)benzyl)-1,2-dihydropyrrolo[1,2-a]pyrazin-3(4H)-one]	102	87	9	1836	1670	72	4	6	60	2	> 60	30	3900	1670	760	715	18	1500	635	Solubility [1]: 57 µM (≈ 24.5 µg/mL); GluN2C (max) (%) (rat GluN1/GluN2C [2]): (298) %; EC50 (rat GluN1/GluN2C [3]; read-out: GluN2C pEC50 [95% CI] (converted)): 1260 nM; % control response (5-HT3A): 98.1 ± 10.4 % control response
COc1ccc(OCC2c3cccn3CCN2C(=O)c2cccc(Cl)c2)cc1 (stereo not drawn) [1180-420, (3-Chlorophenyl)(1-((4-methoxyphenoxy)methyl)-3,4-dihydropyrrolo[1,2-a]pyrazin-2(1H)-yl)methanone]	100	69	7	1413	1315	66	4	8	66	2	> 60	18	3500	1410	856	792	18	2100	841	GluN2C Max % (rat GluN1/GluN2C [2]; maximal response, current without potentiator = 100%): 312%; pEC50 (rat GluN1/GluN2C [3]; read-out: GluN2C EC50): 5.72; % control response (α1-Glycine): 77.6 ± 4.9 % control response
